# Test results from patent publication US10869848B2 (priority 2014, dated 2020).
# Columns and labels:
# [1] = Visual solubility of carmustine in alcoholic solvents; assay type: physicochemical
# [2] = Stability of carmustine solution in TBA or dehydrated ethanol; assay type: physicochemical; conditions: storage at room temperature
# [3] = alcohol such as tertiary butanol; cited from earlier work
structure (smiles),measurement,setting,value
"O=NN(CCCl)C(=O)NCCCl [Carmustine, 1,3-bis (2-chloroethyl)-1-nitrosourea]","precipitation on storage, TBA solution",[1]; TBA solution stored at about 2 to about 8° C.,Neither of the solutions showed any sign of precipitation
same,solubility in TBA,"[1]; TBA, room temperature, visually determined",> 1 g per mL
same,"precipitation on storage, dehydrated ethanol solution",[1]; dehydrated ethanol solution stored at about 2 to about 8° C.,Neither of the solutions showed any sign of precipitation
same,solubility in dehydrated ethanol,"[1]; dehydrated ethanol, room temperature, visually determined",> 1 g per mL
same,"time solution is stable, TBA",[2]; solution in TBA,at least 24 hrs
same,"time solution is stable, dehydrated ethanol",[2]; solution in dehydrated ethanol,at least 24 hrs
same,"solubility in alcohol, dichloromethane and ether",[3],very soluble
